Data as given in PubChem BioAssay AID179 (DTP/NCI, 2004).
Calls of active or inactive are those of the source.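 How the source made its calls: active means compounds giving half or more protection of infected cells from virus-caused growth loss, again on retest; inactive means the rest.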

System: CEM cells HIV-1 protection, formazan growth assay
Assay: NCI AIDS Antiviral Assay
Settings: for IC50: measured here: growth of uninfected CEM cells
In short: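 Steps: treat uninfected and HIV-1-infected human CEM cells at five drug levels; quantify growth by soluble formazan; retest any compound reaching 50% protection; classify actives from the retest.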

Structure (SMILES) | EC50 | IC50 | outcome
Nc1c(N=Nc2ccc(S(=O)(=O)c3ccc(N=Nc4cc(S(=O)(=O)O)c5cccc(S(=O)(=O)O)c5c4N)cc3)cc2)cc(S(=O)(=O)O)c2cccc(S(=O)(=O)O)c12 | 25.1 µM | 380 µM | –
[N-]=[N+]=NC1(c2ccccc2)C(=O)c2cccc3c2N(CCC3)C1=O (stereo unspecified) | > 200 µM | 141 µM | –
O=[N+]([O-])c1ccc(-c2cn(-c3ccc(Cl)cc3)cn2)cc1 | > 100 µM | > 100 µM | –
COC(F)(F)C12CC3CC(CC(C3)C1)C2 | – | – | inactive
CC(C)CC(=O)[O-].N.N.N.N.N.[Co+3].[O-][Cl+3]([O-])([O-])[O-] | – | – | inactive
Cc1cc(Cl)ccc1NC(=O)CCCC(=O)C(C(=O)c1ccccc1)c1ccccc1 (stereo unspecified) | – | – | inactive
CCCCn1c(N)n[nH]c1=S | – | – | inactive
COC(=O)/C=C/c1c[nH]c2nccnc12 | > 166 µM | 53.7 µM | –
Cc1ccc(NC(=S)/C(=C(\[O-])c2ccc([N+](=O)[O-])cc2)[n+]2ccc(C(C)C)cc2)c(C)c1 | > 200 µM | 158 µM | –
C/C(=C1/CCCC2(N=NCC2c2ccccc2)C1=O)c1ccccc1 (stereo unspecified) | > 8.32 µM | > 8.32 µM | –
COC1/C=C/OC2(C)Oc3c(C)c(O)c4c(O)c(c(/C=N/N5C(C)CN(Cc6cccc(C#N)c6)CC5C)c(O)c4c3C2=O)NC(=O)/C(C)=C\C=C\C(C)C(O)C(C)C(O)C(C)C(OC(C)=O)C1C (stereo unspecified) | > 200 µM | 6.46 µM | –
CC(C)c1ncc([N+](=O)[O-])n1C | > 200 µM | > 200 µM | –
C[C@@H]1CN(C(=O)CCOS(C)(=O)=O)[C@@H](C)CN1C(=O)CCOS(C)(=O)=O | > 200 µM | 67.6 µM | –
CCOC(=O)c1cc(Cl)cc2c(=O)c3c(O)c4[nH]c5c(C(=O)OCC)cc(Cl)cc5c(=O)c4c(O)c3[nH]c12 | > 100 µM | 4.9 µM | –
NC(CSSCC(N)=NCC12CC3CC(CC(C3)C1)C2)=NCC12CC3CC(CC(C3)C1)C2 | > 200 µM | 30.9 µM | –
COc1ccc2nc(NC(=O)C(=O)NNC(=O)c3ccncc3)sc2c1 | > 174 µM | 16.2 µM | –
COc1ccc(OC)c2c1-c1nnnn1CCC2(C)C | 132 µM | > 200 µM | –
CN1C(=O)N(C)C(O)C(Cl)(Br)C1=O (stereo unspecified) | > 200 µM | > 200 µM | –
CCOC(=O)CCC1(C)OC[C@H]2OC(n3cc(C)c(=O)[nH]c3=O)C[C@H]2N1O (stereo partly specified) | > 200 µM | > 200 µM | –
O=C(O)C1C(C(=O)O)N2C(c3ccccc3)C(C(=O)O)C(C(=O)O)N2C1c1ccccc1 (stereo unspecified) | > 214 µM | > 214 µM | –
CCOC(=O)CCCSCCCC(=O)CCCSCCCC(=O)OCC | > 447 µM | 309 µM | –
O=c1oc2ccccc2n1Cc1ccc(Cl)cc1 | > 200 µM | 79.4 µM | –
Nc1[nH]nc2nc3n(c(=O)c12)CCCCC3 | > 45.7 µM | > 45.7 µM | –

Structure (SMILES) | EC50 | IC50 | outcome
Cc1cc(C)nc(SC(F)(F)c2nc3ccccc3o2)n1 | – | – | active
COC(=O)C1(CCCCl)CCCN1C(=O)OC(C)(C)C (stereo unspecified) | > 200 µM | > 200 µM | –
O=C(O)c1ccccc1CC(Cc1ccc2c(c1)CCC2)C(=O)O (stereo unspecified) | > 200 µM | > 200 µM | –
N#CC(/C(CCCC(=O)Nc1cccc([N+](=O)[O-])c1)=N\NC(=O)c1c(O)ccc2ccccc12)c1nc2ccccc2s1 (stereo unspecified) | – | – | inactive
C=CC1(c2ccc3ccccc3c2)OCC(CC)(CC)CO1 | > 200 µM | 79.4 µM | –
CCCCCCCCCCCc1c2oc3ccccc3nc-2cc(Nc2ccccc2O)c1=O | > 2.95 µM | > 2.95 µM | –
CSC1=N/C(=C\c2ccc(C)cc2)C(=O)N1CN1CCOCC1 | > 200 µM | 34.7 µM | –
C#CCNC(=O)N(CC#C)N=O | > 1100 µM | 166 µM | –
C[n+]1c2ccccc2c(NCC(=O)O)c2ccccc21 | – | – | inactive
O=C(Cc1csc2[n+]1C(=O)/C(=C/c1cccc([N+](=O)[O-])c1)S2)Nc1ccccc1 | – | – | inactive
Nc1nc([O-])c([I+]c2ccccc2)c(=O)[nH]1 | > 200 µM | > 200 µM | –
O=[N+]([O-])c1cccc[c]1[Sb](=[O])([OH])[c]1ccccc1[N+](=O)[O-] | > 200 µM | 25.1 µM | –
CC1=C(C#N)S(=O)(=O)c2c(oc(C)c2C)N1 | > 200 µM | > 200 µM | –
O=C(O)CCS(=O)(=O)O | > 200 µM | > 200 µM | –
COC(=O)/C(C#N)=C1\N=NNN1CCCc1ccccc1 | – | – | inactive
Cc1ccc(NC2=N/C(=C/c3ccccc3)C(Cl)=N2)cc1 | > 100 µM | > 100 µM | –
COC(=O)c1ccc(NCc2cc(O)c3ccccc3c2O)cc1 | > 200 µM | 3.02 µM | –
CC(CNCCCNCCNCCCNCO)[N+](=O)[O-] (stereo unspecified) | – | – | inactive
COc1cnnc2ccccc12 | > 676 µM | 603 µM | –
CCOC(=O)/C(=C/c1ccc[nH]1)P(=O)(OCC)OCC | > 437 µM | > 437 µM | –
Cc1cn(C2C=CC(COP(=O)(OCC(=O)c3ccccc3)OCC(=O)c3ccccc3)O2)c(=O)[nH]c1=O (stereo unspecified) | 0.851 µM | 110 µM | –
CCOP(=O)(OCC)/C(=C/n1c(=S)[nH]c2ccccc21)C(=O)OC | > 200 µM | > 200 µM | –
COc1ccc(CCC2(C(OC)OC)NC(=O)NC2=O)cc1 (stereo unspecified) | > 200 µM | > 200 µM | –

Structure (SMILES) | EC50 | IC50 | outcome
Nc1ccccc1C(=O)N=Nc1c(O)[nH]c2ccccc12 | > 200 µM | > 200 µM | –
Nc1ccn(C2CC(F)C(CO)O2)c(=O)n1 (stereo unspecified) | 0.148 µM | 427 µM | –
CC(C)(C)[Si](C)(C)OCC1OC(n2ccc(=O)[nH]c2=O)C(O[Si](C)(C)C(C)(C)C)C12OC2C(=O)NN (stereo unspecified) | > 200 µM | 7.41 µM | –
CCOC(=O)c1nc2ccccc2nc1Nc1ccc(Cl)c(Cl)c1 | 151 µM | > 200 µM | –
COc1cc2c3c(c1)/C(=N\N)CCN3CCC2 | > 200 µM | 115 µM | –
CNC(=O)OCCOC(=O)c1ccc(OC(=O)NC)cc1 | > 200 µM | 70.8 µM | –
COc1ccc(/C=C2\C(=O)N(C)C(=O)c3cc(OC)c(OC)cc32)cc1OC | > 100 µM | 51.3 µM | –
CC(C)C1SCc2nc3ccccc3n21 (stereo unspecified) | > 200 µM | 95.5 µM | –
CC(=O)C1=C(C)N2C(=NC3=C(CCc4ccccc43)C2c2ccc(Cl)cc2)S1 (stereo unspecified) | > 200 µM | 18.6 µM | –
CCN(CC)c1c(C(C)(C)C)c(=O)n2ccsc2c1OC(C)=O | > 200 µM | 32.4 µM | –
CSCCC(NC(=O)Cc1ccc(C(=O)c2ccccc2)cc1)C(=O)N1CCN(CCCCN2c3ccccc3Sc3cc(N=[N+]=[N-])ccc32)CC1 (stereo unspecified) | > 200 µM | 33.1 µM | –
C/C=C1\CC(C(=O)OCC)CCCCCCCCCCC1=O (stereo unspecified) | > 200 µM | 8.51 µM | –
O=C(C[P+](c1ccccc1)(c1ccccc1)c1ccccc1)c1ccc([N+](=O)[O-])cc1 | > 200 µM | 19.1 µM | –
Cc1cc(=O)c(C#N)c2c(C#N)c(N)[nH]n12 | > 200 µM | > 200 µM | –
Nc1ccc(Cl)c(-c2nc3ccccc3[nH]2)c1 | > 77.6 µM | > 77.6 µM | –
CC1(C)COC2(C)ON12 (stereo unspecified) | > 200 µM | > 200 µM | –
C1C2CC3CC1CC(Nc1nc(NC45CC6CC(CC(C6)C4)C5)nc(NC45CC6CC(CC(C6)C4)C5)n1)(C2)C3 | > 200 µM | 41.7 µM | –
O=[N+]([O-])/C(C(Cl)=C(Cl)Cl)=C(/Br)SCc1ccccc1 | > 20 µM | 0.575 µM | –
Nc1sc(=S)nc2sc(Nc3ccccc3)nc12 | > 427 µM | > 427 µM | –
CCCNC(=O)N(CC(C)(C)C)S(=O)(=O)c1ccc(Cl)cc1 | – | – | inactive
CC(=O)Nc1ccc(C(=O)NN2C(=O)CSC2c2ccc([N+](=O)[O-])cc2)cc1 (stereo unspecified) | > 25.1 µM | > 25.1 µM | –
Cc1nc(C)c(N2CCN([N+](=O)[O-])CC2)c(=O)[nH]1 | > 200 µM | > 200 µM | –
COC(=O)Cc1c([C@H]2[C@H](CC(=O)OC)c3ccccc3N2C(C)=O)[nH]c2ccccc12 | > 200 µM | 97.7 µM | –

Structure (SMILES) | EC50 | IC50 | outcome
CN(C)c1ccc(-c2c3ccccc3nc3ccccc23)cc1 | > 4.57 µM | > 4.57 µM | –
O=[N+]([O-])c1ccc2cnn(CCO)c2c1 | > 200 µM | > 200 µM | –
C#CCN1C(=O)NC(c2ccccc2)(c2ccccc2)C1=O.[C-]#[O+].[C-]#[O+].[C-]#[O+].[C-]#[O+].[C-]#[O+].[C-]#[O+].[Co].[Co] | > 200 µM | 8.91 µM | –
O=C(Nc1ccc(-c2cccs2)oc1=O)c1ccccc1 | > 200 µM | > 200 µM | –
O=C1CN(CCCO)CC(=O)N2Cc3ccccc3CN12 | > 200 µM | > 200 µM | –
CCOC(=O)C1=[N+]([O-])OC2=C(O)CCCC21 (stereo unspecified) | – | – | inactive
COC(=O)CCC(C)C1CCC2[C@@H]3CC[C@@H]4CC(=O)CC[C@]4(C)C3CC[C@]12C (stereo partly specified) | > 5.13 µM | > 5.13 µM | –
C=C(C)CCC1C=[N+]([O-])OC(C)(C)C1(C)C (stereo unspecified) | > 200 µM | 107 µM | –
Cc1ccc2nc(CN3CCCC(O)C3)cc(=O)n2c1 (stereo unspecified) | > 200 µM | > 200 µM | –
CCCCCCCCCC(=O)Oc1cccc2onc(C)c12 | > 24 µM | > 24 µM | –
O=C(O)C1CC(C2CCCCN2)CN2CCCCC12 (stereo unspecified) | > 200 µM | > 200 µM | –
CCOC(=O)c1ccc(N2CCN(c3c(C)nc(N)nc3N)CC2)cc1 | > 100 µM | 0.0316 µM | –
CC1(C)SCc2nc3ncccc3n21 | > 1230 µM | 617 µM | –
CS(=O)(=O)C(C#N)c1nc2ccccc2nc1Cl (stereo unspecified) | > 200 µM | > 200 µM | –
Cn1c(-c2ccc(/C=N\N3CCN(/N=C/c4ccc(-c5c[n+]6ccccc6n5C)cc4)CC3)cc2)c[n+]2ccccc12 | > 3.02 µM | > 3.02 µM | –
COC(=O)c1cc(=O)nc(NN)s1 | > 50.1 µM | > 50.1 µM | –
CC1CC(=O)c2ccccc2O1 (stereo unspecified) | > 200 µM | > 200 µM | –
NC(=S)/N=C(/c1nc2ccc(Cl)cc2[nH]c1=O)C(O)c1ccccc1Cl (stereo unspecified) | > 617 µM | 589 µM | –
CC1C(=O)OC2CCC3(C)C(=O)OC4OC5(c6ccoc6)CC1(O)C2(C)C43O5 (stereo unspecified) | > 200 µM | > 200 µM | –
Cn1c(=O)n2c(=O)n(C)c(=O)n2c1=O | > 200 µM | > 200 µM | –
